Measured values taken from the supplement of paper PMC11451515.

Key:
Test in all cases: AUC of viability dose-response curve (% viability x log10 dose units); higher = less sensitive
Conditions in all cases: 48 h
SEM cells = system: SEM cells
Outline: (§1)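 Area under the curve was integrated by trapezoidal rule from a log-logistic fit of normalised viability, with curves exceeding full viability scaled and quality-control failures removed. The fit had four parameters over log10 doses. Viability came from CellTiter-Glo One luminescence, normalised per plate to DMSO and cell-free wells, after leukemia cells adapted to each medium (500 or 1000 cells/well, 1536-well plates) were exposed to library compounds in DMSO for 48 h at 37°C. The 11 threefold doses ran from 47 μM to 0.79 nM.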

P12-Ichikawa = system: P12-Ichikawa
Outline: as §1

NOMO1 = system: NOMO1
Outline: as §1

[1] = RPMI 5 mM glucose + 10% dialyzed FBS

Structure (SMILES) | AUC of viability dose-response curve (SEM cells; HPLM + 10% dialyzed FBS) | AUC of viability dose-response curve (SEM cells; RPMI 5 mM glucose + 10% FBS) | AUC of viability dose-response curve (SEM cells; [1]) | AUC of viability dose-response curve (P12-Ichikawa; HPLM + 10% dialyzed FBS) | AUC of viability dose-response curve (P12-Ichikawa; RPMI 5 mM glucose + 10% FBS) | AUC of viability dose-response curve (P12-Ichikawa; [1]) | AUC of viability dose-response curve (NOMO1; HPLM + 10% dialyzed FBS) | AUC of viability dose-response curve (NOMO1; RPMI 5 mM glucose + 10% FBS) | AUC of viability dose-response curve (NOMO1; [1])
C[C@@H]1CN(Cc2ccc(F)cc2)[C@@H](C)CN1C(=O)c1cc2c(C(=O)C(=O)N(C)C)cn(C)c2cc1Cl | 462 | 413 | 449 | 471 | 472 | 471 | 467 | 474 | 475
CCOC(=O)N1c2ccc(C(F)(F)F)cc2[C@@H](N(Cc2cc(C(F)(F)F)cc(C(F)(F)F)c2)C(=O)OC)C[C@H]1CC | 462 | 460 | 468 | 449 | 466 | 471 | 434 | 460 | 470
COc1cc([C@@H]2c3cc4c(cc3[C@H](O)[C@H]3COC(=O)[C@@H]23)OCO4)cc(OC)c1OC | 266 | 280 | 249 | 271 | 279 | 291 | 304 | 280 | 292
CCOc1cc2ncc(C#N)c(Nc3ccc(OCc4ccccn4)c(Cl)c3)c2cc1NC(=O)/C=C/CN(C)C | 276 | 209 | 268 | 293 | 320 | 321 | 279 | 303 | 328
CC\12CCC(=O)\C=C1CCC3C2CCC4(C)C3CCC4(O)C#C (configuration not stated) | 452 | 461 | 458 | 442 | 452 | 421 | 456 | 430 | 428
CN1CCN(c2c(F)cc3c(=O)c(C(=O)O)cn(CCF)c3c2F)CC1 | 439 | 458 | 466 | 459 | 457 | 445 | 466 | 447 | 461
CCOC(=O)[C@@]1(CCCCCCOc2ccc(Cl)cc2)CO1 | 428 | 413 | 426 | 448 | 452 | 454 | 458 | 444 | 456
O=C(CCCCCCC(=O)Nc1ccc([C@H]2O[C@@H](CSc3nc(-c4ccccc4)c(-c4ccccc4)o3)C[C@@H](c3ccc(CO)cc3)O2)cc1)NO | 398 | 397 | 391 | 378 | 376 | 362 | 405 | 406 | 403
C[C@]12Cc3cn[nH]c3C[C@@H]1CC[C@@H]1[C@@H]2CC[C@@]2(C)[C@H]1CC[C@]2(C)O | 414 | 473 | 473 | 459 | 466 | 463 | 458 | 467 | 442
O=C(CS(=O)Cc1ccco1)NC/C=C\COc1cc(CN2CCCCC2)ccn1 (configuration not stated) | 455 | 452 | 446 | 459 | 463 | 450 | 464 | 440 | 474
COC(=O)Nc1nc2cc(C(=O)c3ccc(F)cc3)ccc2[nH]1 | 343 | 363 | 374 | 365 | 377 | 388 | 372 | 426 | 402
Cc1cc(OCCC[S+](C)(=O)[O-])cc(C)c1-c1cccc(COc2ccc3c(c2)OC[C@H]3CC(=O)O)c1 | 454 | 448 | 445 | 460 | 428 | 430 | 466 | 458 | 434
C[C@@H]1CCN(C(=O)CC#N)C[C@@H]1N(C)c1ncnc2[nH]ccc12 | 381 | 453 | 430 | 411 | 413 | 377 | 407 | 376 | 414
